Assay results taken from patent US20240228390A1, “Chelated Nutrients and Methods of Use Thereof” (ICL AMERICA DO SUL S.A., priority 2021, published 2024).

Experiment: Stability testing at different pH levels
Format: physicochemical
Conditions: Chelate A (glutamic acid + malic acid)
Protocol: Stability testing at different PH levels was performed and turning to Table 1, there is a large range of the chelates' stability, wherein the structure of the chelates can be considered stable.

Substance: [Zn(Glu)(Mal)]2Na [Chelate A Zn^2+]
- Stability pH of the chelates, Acid medium (acid limit of stable pH range): 0.20
- Stability pH of the chelates, Alkaline medium (alkaline limit of stable pH range): 11.30
